According to patent US7727530B2, “Anti-cancer composition comprising proline or its derivatives and an anti-tumour antibody” (priority 2004, dated 2010):

Tests used:
Assay type in all cases: cell-based
[1] = tested on: Colo205 colon cancer cells; test: MTT proliferation (chemosensitivity) assay, Colo205
[2] = tested on: A431 epidermoid carcinoma; test: MTT proliferation (chemosensitivity) assay, A431; conditions: A431 EGFR-overexpressing cell line
Description: (§1) MTT proliferation tests were performed as described. The proliferation control of both the untreated cells and the CHP pre-treated cells is set to 100%.
(§2) Unless otherwise indicated, all cell lines were obtained from the American Type Culture Collection (ATCC, Rockville, Md.) and grown to confluent monolayers in RPMI-1640 bicarbonate medium (Seromed, Berlin, Germany) in a humidified incubator (5% CO2, 37° C.). Cells were checked for mycoplasma contamination. The medium was supplemented with 10% heat-inactivated foetal bovine serum (Seromed) and 4 mM glutamine. The cells were subcultured by trypsination (0.03% trypsin containing 0.02% EDTA, three times a week). Cells numbers were counted using a TOA Sysmex microcellcounter (TOA, Tokyo, Japan).
(§3) 10^4 cells/well were distributed into 96-well microtitre plates (100 μl medium) and the compounds to be tested were added in another 100 μl volume. All compounds were diluted in triplicate or in most cases in quadruplicate. Plates were incubated under tissue culture conditions for 4 days, except those for tests investigating the relationship between application time and response, and cell viability was measured using a modified MTT assay (formazane dye formation from tetrazolium salts by mitochondrial reduction; EZ4U, Biomedica, Vienna, Austria), assessing mitochondrial activity and thereby cell viability/cell numbers. […]

WI38 normal fibroblasts = test: MTT proliferation (chemosensitivity) assay, WI38; conditions: W138
Description: as §1, §2, §3

[3] = tested on: colo250 colon cancer cell lines; test: CHP with analytical EGFR-antibody, inhibition of proliferation; conditions: read-out: Inhibition of the control in %
Description: as §1, §2, §3

[4] = tested on: MIAPaCa2 pancreatic cancer cell line; test: MTT proliferation (chemosensitivity) assay, MIAPaCa2
Description: as §1, §2
(§4) 10^4 cells/well were distributed into 96-well microtitre plates (100 μl medium) and the compounds to be tested were added in another 100 μl volume. All compounds were diluted in triplicate or in most cases in quadruplicate. Plates were incubated under tissue culture conditions for 4 days, except those for tests investigating the relationship between application time and response, and cell viability was measured using a modified MTT assay (formazane dye formation from tetrazolium salts by mitochondrial reduction; EZ4U, Biomedica, Vienna, Austria), assessing mitochondrial activity and thereby cell viability/cell numbers. In brief, the supplied substrate was diluted in an activator solution and 20 μl of the mixture added per well for 2 hrs. The optical density was measured at 450 nm using an empty well as reference in a microplate reader (Eurogenetics, Brussels, Belgium). For each cell line, 8 wells were used to measure the MTT signal of the medium control without test substances and the proliferation in the test wells was calculated in relation to these control values set to 100%. Test results were recorded between 0.3 and 1.5 optical densities for slowly and rapidly proliferating cells respectively.
Experiments using pre-incubation with CHP were performed using more cell lines, namely BxPC3 and MIAPaCa2 pancreatic cancer cell lines. […]

SW620 colon cancer cells = test: MTT proliferation (chemosensitivity) assay, SW620
Description: as §1, §2
as §4, with “100%.” for “100%. Test results were recorded between 0.3 and 1.5 optical densities for slowly and rapidly proliferating cells respectively.”
SW620chp4 and A431chp4 cells represent cells pre-treated with 400 μg/ml CHP for 5 days under tissue culture conditions.

EGFR = EGFR expression of A431 cells after CHP pre-incubation; conditions: A431 cells pre-incubated with CHP
HT29 colon cancer cells = test: MTT proliferation (chemosensitivity) assay, HT29; conditions: high concentrations of Cetuximab
Description: as §1, §2, §3

DLD1 colon cancer cells = test: MTT proliferation (chemosensitivity) assay, DLD1; conditions: high concentrations of Cetuximab
Description: as §1, §2, §3

[5] = Homo sapiens, SW-620, read-out: proliferation activity (% of control)
[6] = Homo sapiens, read-out: proliferation activity (% of control)
[7] = Homo sapiens, COLO 205, read-out: proliferation activity (% of control)

Compound: CCOC(=O)[C@@H]1CC(O)CN1C (stereo partly shown) [A1.21, 4-hydroxy-1-methyl-proline ethyl ester]
- proliferation activity (% of control) ([1]; Colo 205 cells pre-incubated with the derivative 50 μg/ml for 5 days, then Cetuximab, Cetuximab concentrations not given): 94.5 ± 1.7%

Compound: O=C(O)[C@@H]1C[C@H](O)CN1 [CHP, Cis-4-hydroxy-L-proline]
- interaction of CHP pre-incubation with Cetuximab [2]: antagonistic interaction
- interaction with Cetuximab, sequential combination (CHP pre-treatment) (WI38 normal fibroblasts): antagonistic effects
- inhibition at 200 µg/mL ([3]; CHP 200 μg/ml alone): 7.3 ± 8.1%
- inhibition at 100 µg/mL ([3]; CHP100, CHP 100 μg/ml alone): 2.9 ± 10.1%
- interaction CHP-Cetuximab, pre-incubation with CHP 200 μg/ml [4]: antagonistic interaction
- interaction with Rituximab, CHP pre-treatment ([4]; 400 μg/ml CHP for 5 days): synergy
- interaction Avastatin-CHP pre-incubation ([4]; high concentrations of Avastatin): Slightly synergistic effects
- activity at 12.5 µg/mL (SW620 colon cancer cells; [5]): 98.7 ± 3%
- activity at 25 µg/mL (SW620 colon cancer cells; [5]): 92.3 ± 0.9%
- activity at 50 µg/mL (SW620 colon cancer cells; [5]): 91.9 ± 4.1%
- activity at 200 µg/mL (SW620 colon cancer cells; [5]): 69.9 ± 2.6%
- activity at 400 µg/mL (SW620 colon cancer cells; [5]): 51.3 ± 3.7%
- activity at 100 µg/mL (SW620 colon cancer cells; [6]): 85.2 ± 0.7%
- interaction with Cetuximab, direct combination (SW620 colon cancer cells; SW620 cells, low concentrations of CHP (6.3-50 μg/ml), Cetuximab 40 μg/ml): antagonistic
- expression of EGFR (EGFR): reduced expression of EGFR
- interaction with Cetuximab, sequential combination (CHP pre-treatment) (HT29 colon cancer cells): antagonistic effects
- interaction with Cetuximab, direct combination ([1]; C205, CHP 400 μg/ml, at 5 and […] (printed as concentrations of CHP)): antagonistic
- interaction with Cetuximab, direct combination ([1]; C205, CHP 400 μg/ml, other concentrations): no significant interaction
- interaction Avastatin-CHP pre-incubation ([1]; Colo205, high concentrations of Avastatin): Slightly synergistic effects
- interaction with Cetuximab, direct combination ([1]; Colo205 cells, higher concentrations of CHP (50, 200 and 400 μg/ml), Cetuximab 40 μg/ml): antagonistic
- activity at 12.5 µg/mL [1, 7]: 92.2 ± 1.4%
- activity at 25 µg/mL [1, 7]: 94.4 ± 6.2%
- activity at 50 µg/mL [1, 7]: 84.2 ± 2.1%
- activity at 200 µg/mL [1, 7]: 15.7 ± 1%
- activity at 400 µg/mL [1, 7]: 9.9 ± 0.4%
- activity at 100 µg/mL [1, 6]: 45.5 ± 3.2%
- interaction with Cetuximab, sequential combination (CHP pre-treatment) (DLD1 colon cancer cells): antagonistic effects
